Laboratory results reported in PubChem BioAssay (NCI).
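Growth conditions: 96-well plates. Treatment: test compound, 48 hours, 5 concentrations. Analysis: linear interpolation between bracketing concentrations; unreached endpoints set to highest concentration. At the GI50, growth is halved. TGI marks complete inhibition of growth.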

Assays:
Test in all cases: NCI-60 cell line screen, 48 h
PC-3 prostate = test system: PC-3 prostate
UO-31 renal = test system: UO-31 renal
OVCAR-5 ovarian = test system: OVCAR-5 ovarian
U251 CNS = test system: U251 CNS
MALME-3M melanoma = test system: MALME-3M melanoma
MDA-MB-435 = test system: MDA-MB-435
SF-268 CNS = test system: SF-268 CNS
CCRF-CEM leukemia = test system: CCRF-CEM leukemia
SR leukemia = test system: SR leukemia
OVCAR-3 ovarian = test system: OVCAR-3 ovarian
SK-MEL-28 melanoma = test system: SK-MEL-28 melanoma
SN12C renal = test system: SN12C renal
SF-539 CNS = test system: SF-539 CNS
SK-OV-3 ovarian = test system: SK-OV-3 ovarian
TK-10 renal = test system: TK-10 renal
COLO 205 colon = test system: COLO 205 colon
MCF7 breast = test system: MCF7 breast
MDA-MB-231 breast = test system: MDA-MB-231 breast
MOLT-4 leukemia = test system: MOLT-4 leukemia
DU-145 prostate = test system: DU-145 prostate
SNB-75 CNS = test system: SNB-75 CNS
UACC-62 melanoma = test system: UACC-62 melanoma
OVCAR-8 ovarian = test system: OVCAR-8 ovarian
HS 578T breast = test system: HS 578T breast
A549 NSCLC = test system: A549 NSCLC
SK-MEL-5 melanoma = test system: SK-MEL-5 melanoma
NCI-H23 lung = test system: NCI-H23 lung
A498 renal = test system: A498 renal
M14 melanoma = test system: M14 melanoma
IGROV1 ovarian = test system: IGROV1 ovarian
ACHN renal = test system: ACHN renal
SW-620 colon = test system: SW-620 colon
HT29 colon = test system: HT29 colon
RPMI-8226 leukemia = test system: RPMI-8226 leukemia
HL-60(TB) leukemia = test system: HL-60(TB) leukemia
T-47D breast = test system: T-47D breast
NCI-H226 lung = test system: NCI-H226 lung
SF-295 CNS = test system: SF-295 CNS
SNB-19 CNS = test system: SNB-19 CNS
KM12 colon = test system: KM12 colon
BT-549 breast = test system: BT-549 breast
NCI-H522 lung = test system: NCI-H522 lung
786-0 renal = test system: 786-0 renal
HCC-2998 colon = test system: HCC-2998 colon
HOP-62 NSCLC = test system: HOP-62 NSCLC
SK-MEL-2 melanoma = test system: SK-MEL-2 melanoma
K-562 leukemia = test system: K-562 leukemia
HCT-116 colon = test system: HCT-116 colon
HCT-15 colon = test system: HCT-15 colon
LOX IMVI melanoma = test system: LOX IMVI melanoma
RXF 393 renal = test system: RXF 393 renal
NCI-H460 lung = test system: NCI-H460 lung
CAKI-1 renal = test system: CAKI-1 renal
OVCAR-4 ovarian = test system: OVCAR-4 ovarian
NCI/ADR-RES ovarian = test system: NCI/ADR-RES ovarian
UACC-257 melanoma = test system: UACC-257 melanoma

Cn1cc(C2=C(c3cn(CCCN=C(N)N)c4ccccc34)C(=O)NC2=O)c2ccccc21
GI50 (PC-3 prostate): > 23.1 µM | TGI (PC-3 prostate): > 25 µM | GI50 (UO-31 renal): > 25 µM | TGI (UO-31 renal): > 25 µM | GI50 (OVCAR-5 ovarian): > 25 µM | TGI (OVCAR-5 ovarian): > 25 µM | GI50 (U251 CNS): > 25 µM | TGI (U251 CNS): > 25 µM | GI50 (MALME-3M melanoma): > 25 µM | TGI (MALME-3M melanoma): > 25 µM | GI50 (MDA-MB-435): > 25 µM | TGI (MDA-MB-435): > 25 µM | GI50 (SF-268 CNS): > 25 µM | TGI (SF-268 CNS): > 25 µM | GI50 (CCRF-CEM leukemia): > 25 µM | TGI (CCRF-CEM leukemia): > 25 µM | GI50 (SR leukemia): 7.22 µM | TGI (SR leukemia): > 25 µM | GI50 (OVCAR-3 ovarian): > 25 µM | TGI (OVCAR-3 ovarian): > 25 µM | GI50 (SK-MEL-28 melanoma): > 25 µM | TGI (SK-MEL-28 melanoma): > 25 µM | GI50 (SN12C renal): > 19.8 µM | TGI (SN12C renal): > 25 µM | GI50 (SF-539 CNS): > 25 µM | TGI (SF-539 CNS): > 25 µM | GI50 (SK-OV-3 ovarian): > 25 µM | TGI (SK-OV-3 ovarian): > 25 µM | GI50 (TK-10 renal): > 25 µM | TGI (TK-10 renal): > 25 µM | GI50 (COLO 205 colon): 9.76 µM | TGI (COLO 205 colon): > 25 µM | GI50 (MCF7 breast): > 25 µM | TGI (MCF7 breast): > 25 µM | GI50 (MDA-MB-231 breast): > 25 µM | TGI (MDA-MB-231 breast): > 25 µM | GI50 (MOLT-4 leukemia): > 25 µM | TGI (MOLT-4 leukemia): > 25 µM | GI50 (DU-145 prostate): > 25 µM | TGI (DU-145 prostate): > 25 µM | GI50 (SNB-75 CNS): 0.361 µM | TGI (SNB-75 CNS): > 25 µM | GI50 (UACC-62 melanoma): > 25 µM | TGI (UACC-62 melanoma): > 25 µM | GI50 (OVCAR-8 ovarian): > 25 µM | TGI (OVCAR-8 ovarian): > 25 µM | GI50 (HS 578T breast): > 25 µM | TGI (HS 578T breast): > 25 µM | GI50 (A549 NSCLC): > 25 µM | TGI (A549 NSCLC): > 25 µM | GI50 (SK-MEL-5 melanoma): > 25 µM | TGI (SK-MEL-5 melanoma): > 25 µM | GI50 (NCI-H23 lung): > 25 µM | TGI (NCI-H23 lung): > 25 µM | GI50 (A498 renal): > 25 µM | TGI (A498 renal): > 25 µM | GI50 (M14 melanoma): > 25 µM | TGI (M14 melanoma): > 25 µM | GI50 (IGROV1 ovarian): 14.8 µM | TGI (IGROV1 ovarian): > 25 µM | GI50 (ACHN renal): > 25 µM | TGI (ACHN renal): > 25 µM | GI50 (SW-620 colon): > 25 µM | TGI (SW-620 colon): > 25 µM | GI50 (HT29 colon): > 25 µM | TGI (HT29 colon): > 25 µM | GI50 (RPMI-8226 leukemia): > 25 µM | TGI (RPMI-8226 leukemia): > 25 µM | GI50 (HL-60(TB) leukemia): > 25 µM | TGI (HL-60(TB) leukemia): > 25 µM | GI50 (T-47D breast): > 25 µM | TGI (T-47D breast): > 25 µM | GI50 (NCI-H226 lung): > 25 µM | TGI (NCI-H226 lung): > 25 µM | GI50 (SF-295 CNS): > 25 µM | TGI (SF-295 CNS): > 25 µM | GI50 (SNB-19 CNS): > 25 µM | TGI (SNB-19 CNS): > 25 µM | GI50 (KM12 colon): > 25 µM | TGI (KM12 colon): > 25 µM | GI50 (BT-549 breast): > 25 µM | TGI (BT-549 breast): > 25 µM | GI50 (NCI-H522 lung): > 22.2 µM | TGI (NCI-H522 lung): > 25 µM | GI50 (786-0 renal): > 25 µM | TGI (786-0 renal): > 25 µM | GI50 (HCC-2998 colon): > 25 µM | TGI (HCC-2998 colon): > 25 µM | GI50 (HOP-62 NSCLC): > 25 µM | TGI (HOP-62 NSCLC): > 25 µM | GI50 (SK-MEL-2 melanoma): > 18.4 µM | TGI (SK-MEL-2 melanoma): > 25 µM | GI50 (K-562 leukemia): > 25 µM | TGI (K-562 leukemia): > 25 µM | GI50 (HCT-116 colon): > 25 µM | TGI (HCT-116 colon): > 25 µM | GI50 (HCT-15 colon): > 25 µM | TGI (HCT-15 colon): > 25 µM | GI50 (LOX IMVI melanoma): > 25 µM | TGI (LOX IMVI melanoma): > 25 µM | GI50 (RXF 393 renal): > 20 µM | TGI (RXF 393 renal): > 25 µM | GI50 (NCI-H460 lung): > 25 µM | TGI (NCI-H460 lung): > 25 µM | GI50 (CAKI-1 renal): > 25 µM | TGI (CAKI-1 renal): > 25 µM | GI50 (OVCAR-4 ovarian): > 25 µM | TGI (OVCAR-4 ovarian): > 25 µM | GI50 (NCI/ADR-RES ovarian): > 25 µM | TGI (NCI/ADR-RES ovarian): > 25 µM | GI50 (UACC-257 melanoma): > 25 µM | TGI (UACC-257 melanoma): > 25 µM
